# Assays:
# [1] = compound: C1CC(C1)(C(=O)[O-])C(=O)[O-].N.N.[Pt+2] [Carboplatin]; conditions: max 10 µM
# How it was run: (§1)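 Cancer cell lines were dosed for 72 hours (final DMSO typically 0.2%) after 24 hours at 37°C and 5% CO2 in 1536-well plates containing 7.5 μl DMEM/F12 or RPMI with 10% FBS. Viability came from CellTiter-Glo 2.0 luminescence, scaled between blank-well and DMSO-well means, and dose responses were fitted to a two-parameter logistic curve with a non-linear mixed effects model. The single-agent IC50 was obtained from this fit.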
# [2] = compound: C1CN(CCC1(C(=O)N[C@@H](CCO)C2=CC=C(C=C2)Cl)N)C3=NC=NC4=C3C=CN4 [AZD5363]; conditions: max 10 µM
# How it was run: as §1
# [3] = compound: C=CCn1c(=O)c2cnc(Nc3ccc(N4CCN(C)CC4)cc3)nc2n1-c1cccc(C(C)(C)O)n1 [AZD1775]; conditions: max 3 µM
# How it was run: as §1
# [4] = compound: CC(=O)Nc1cccc(-n2c(=O)n(C3CC3)c(=O)c3c(Nc4ccc(I)cc4F)n(C)c(=O)c(C)c32)c1 [Trametinib]; conditions: max 1 µM
# How it was run: as §1
# [5] = compound: CC(=O)O[C@H]1C(=O)[C@@]2(C)[C@H]([C@H](OC(=O)c3ccccc3)[C@]3(O)C[C@H](OC(=O)[C@H](O)[C@@H](NC(=O)c4ccccc4)c4ccccc4)C(C)=C1C3(C)C)[C@]1(OC(C)=O)CO[C@@H]1C[C@@H]2O [Paclitaxel]; conditions: max 3 µM
# How it was run: as §1
# [6] = compound: CC(=O)c1c(C)c2cnc(Nc3ccc(N4CCNCC4)cn3)nc2n(C2CCCC2)c1=O [Palbociclib]; conditions: max 10 µM
# How it was run: as §1
# [7] = compound: CC(C)n1c(=O)n(C)c2cnc3cc(F)c(-c4ccc(OCCCN5CCCCC5)nc4)cc3c21 [AZD1390]; conditions: max 0.3 µM
# How it was run: as §1
# [8] = compound: CC1(C)CCC(CN2CCN(c3ccc(C(=O)NS(=O)(=O)c4ccc(NCC5CCOCC5)c([N+](=O)[O-])c4)c(Oc4cnc5[nH]ccc5c4)c3)CC2)=C(c2ccc(Cl)cc2)C1 [Venetoclax]; conditions: max 1 µM
# How it was run: as §1
# [9] = compound: CC1=C(C(=CC=C1)Cl)NC(=O)C2=CN=C(S2)NC3=CC(=NC(=N3)C)N4CCN(CC4)CCO [Dasatinib]; conditions: max 2 µM
# How it was run: as §1
# [10] = compound: CC1=CN2[C@@H](C1)C=NC3=CC(=C(C=C3C2=O)OC)OCCCCCOC4=C(C=C5C(=C4)N=C[C@@H]6CC(=CN6C5=O)C)OC [SG3199]; conditions: max 0.001 µM
# How it was run: as §1
# [11] = compound: CCN(CCO)CCCOc1ccc2c(Nc3cc(CC(=O)Nc4cccc(F)c4)[nH]n3)ncnc2c1 [AZD2811]; conditions: max 1 µM
# How it was run: as §1
# [12] = compound: CCc1c2c(nc3ccc(O)cc13)-c1cc3c(c(=O)n1C2)COC(=O)[C@]3(O)CC [SN-38]; conditions: max 0.3 µM
# How it was run: as §1
# [13] = compound: CN(C)CCCOc1ccc(-c2ccc3ncc4c(c3c2)n(C2CCOCC2)c(=O)n4C)cn1 [AZD0156]; conditions: max 3 µM
# How it was run: as §1
# [14] = compound: CN(CC[C@H](CSC1=CC=CC=C1)NC2=C(C=C(C=C2)S(=O)(=O)NC(=O)C3=CC=C(C=C3)N4CCC(CC4)[C@H](C5=CC=CC=C5C6=CC=C(C=C6)Cl)O)S(=O)(=O)C(F)(F)F)CCO [AZD4320]; conditions: max 1 µM
# How it was run: as §1
# [15] = compound: COc1cc(Nc2ncc3c(n2)-c2ccc(Cl)cc2C(c2c(F)cccc2OC)=NC3)ccc1C(=O)O [Alisertib]; conditions: max 10 µM
# How it was run: as §1
# [16] = compound: COc1cc([C@@H]2c3cc4c(cc3[C@@H](O[C@@H]3O[C@@H]5CO[C@@H](C)O[C@H]5[C@H](O)[C@H]3O)[C@H]3COC(=O)[C@H]23)OCO4)cc(OC)c1O [Etoposide]; conditions: max 10 µM
# How it was run: as §1
# [17] = compound: COc1cc2ncnc(Nc3ccc(F)c(Cl)c3)c2cc1OCCCN1CCOCC1 [Gefitinib]; conditions: max 10 µM
# How it was run: as §1
# [18] = compound: COc1cccc(OCCCN)c1-c1cc(Nc2cnc(C#N)cn2)n[nH]1 [Prexasertib]; conditions: max 1 µM
# How it was run: as §1
# [19] = compound: COc1cccc2c1C(=O)c1c(O)c3c(c(O)c1C2=O)C[C@@](O)(C(=O)CO)C[C@@H]3O[C@H]1C[C@H](N)[C@H](O)[C@H](C)O1 [Doxorubicin]; conditions: max 1 µM
# How it was run: as §1
# [20] = compound: COc1nnc2ccc(N3CCC(c4ccc(OCCN5CCN(C)C(=O)[C@H]5C)cc4)CC3)nn12 [AZD5153]; conditions: max 1 µM
# How it was run: as §1
# [21] = compound: CS(=O)(=O)CCNCc1ccc(-c2ccc3ncnc(Nc4ccc(OCc5cccc(F)c5)c(Cl)c4)c3c2)o1 [Lapatinib]; conditions: max 10 µM
# How it was run: as §1
# [22] = compound: C[C@@H](Nc1cc(F)cc(F)c1)c1cc(C(=O)N(C)C)cc2c(=O)cc(N3CCOCC3)oc12 [AZD8186]; conditions: max 10 µM
# How it was run: as §1
# [23] = compound: C[C@@H](Oc1cc(-c2cnn(C3CCNCC3)c2)cnc1N)c1c(Cl)ccc(F)c1Cl [Crizotinib]; conditions: max 10 µM
# How it was run: as §1
# [24] = compound: C[C@@H](c1ccc2nccn2c1)n1nnc2ncc(-c3cnn(C)c3)nc21 [Savolitinib]; conditions: max 1 µM
# How it was run: as §1
# [25] = compound: C[C@@H]1COCCN1C2=NC(=NC(=C2)C3(CC3)[S@](=N)(=O)C)C4=C5C=CNC5=NC=C4 [AZD6738]; conditions: max 10 µM
# How it was run: as §1
# [26] = compound: Cc1c2c(nn1C)CSCc1cc(n(C)n1)CSc1cc(c3ccccc3c1)OCCCc1c(C(=O)O)n(C)c3c-2c(Cl)ccc13 [AZD5991]; conditions: max 1 µM
# How it was run: as §1
# [27] = compound: Cc1cc2ncnn2cc1Nc1ncc2c(n1)n(C1CCOCC1)c(=O)n2C [AZD7648]; conditions: max 10 µM
# How it was run: as §1
# [28] = compound: Cc1nc(-c2cn3c(n2)-c2ccc(-c4cnn(C(C)(C)C(N)=O)c4)cc2OCC3)n(C(C)C)n1 [Taselisib]; conditions: max 10 µM
# How it was run: as §1
# [29] = compound: Cn1cnc2c(F)c(Nc3ccc(Br)cc3Cl)c(C(=O)NOCCO)cc21 [Selumetinib]; conditions: max 10 µM
# How it was run: as §1
# [30] = compound: N#Cc1cnc(Nc2cc(NC[C@H]3CNCCO3)c(C(F)(F)F)cn2)cn1 [SRA737]; conditions: max 10 µM
# How it was run: as §1
# [31] = compound: NC1(c2ccc(-c3nc4ccn5c(=O)[nH]nc5c4cc3-c3ccccc3)cc2)CCC1 [MK-2206]; conditions: max 10 µM
# How it was run: as §1
# [32] = compound: Nc1ccn([C@@H]2O[C@H](CO)[C@@H](O)C2(F)F)c(=O)n1 [Gemcitabine]; conditions: max 0.3 µM
# How it was run: as §1
# [33] = compound: O=C(Nc1ccc2[nH]nc(-c3ccncc3)c2c1)[C@@H]1CCN(CC(=O)N2CCN(c3ccc(-c4ncccn4)cc3)CC2)C1; conditions: max 5 µM
# How it was run: as §1
# [34] = compound: O=C(c1cc(Cc2n[nH]c(=O)c3ccccc23)ccc1F)N1CCN(C(=O)C2CC2)CC1 [Olaparib]; conditions: max 10 µM
# How it was run: as §1
# [35] = compound: O=c1[nH]cc(F)c(=O)[nH]1 [5-Fluorouracil]; conditions: max 20 µM
# How it was run: as §1
Cell Line,"IC50, cell viability 72 h [1]","IC50, cell viability 72 h [2]","IC50, cell viability 72 h [3]","IC50, cell viability 72 h [4]","IC50, cell viability 72 h [5]","IC50, cell viability 72 h [6]","IC50, cell viability 72 h [7]","IC50, cell viability 72 h [8]","IC50, cell viability 72 h [9]","IC50, cell viability 72 h [10]","IC50, cell viability 72 h [11]","IC50, cell viability 72 h [12]","IC50, cell viability 72 h [13]","IC50, cell viability 72 h [14]","IC50, cell viability 72 h [15]","IC50, cell viability 72 h [16]","IC50, cell viability 72 h [17]","IC50, cell viability 72 h [18]","IC50, cell viability 72 h [19]","IC50, cell viability 72 h [20]","IC50, cell viability 72 h [21]","IC50, cell viability 72 h [22]","IC50, cell viability 72 h [23]","IC50, cell viability 72 h [24]","IC50, cell viability 72 h [25]","IC50, cell viability 72 h [26]","IC50, cell viability 72 h [27]","IC50, cell viability 72 h [28]","IC50, cell viability 72 h [29]","IC50, cell viability 72 h [30]","IC50, cell viability 72 h [31]","IC50, cell viability 72 h [32]","IC50, cell viability 72 h [33]","IC50, cell viability 72 h [34]","IC50, cell viability 72 h [35]"
HH (T-Cell Non-Hodgkin's Lymphoma),> 10000 nM,> 10000 nM,> 3000 nM,> 1000 nM,> 3000 nM,> 10000 nM,> 300 nM,> 1000 nM,> 2000 nM,> 1 nM,> 1000 nM,> 300 nM,> 3000 nM,> 1000 nM,> 10000 nM,> 10000 nM,> 10000 nM,186 nM,> 1000 nM,> 1000 nM,> 10000 nM,> 10000 nM,> 10000 nM,> 1000 nM,> 10000 nM,341 nM,> 10000 nM,> 10000 nM,> 10000 nM,> 10000 nM,> 10000 nM,> 300 nM,> 5000 nM,> 10000 nM,> 20000 nM
TGBC1TKB (Biliary Tract Carcinoma),> 10000 nM,> 10000 nM,> 3000 nM,> 1000 nM,969 nM,> 10000 nM,> 300 nM,> 1000 nM,> 2000 nM,> 1 nM,> 1000 nM,> 300 nM,> 3000 nM,> 1000 nM,> 10000 nM,> 10000 nM,> 10000 nM,> 1000 nM,> 1000 nM,> 1000 nM,> 10000 nM,> 10000 nM,> 10000 nM,> 1000 nM,> 10000 nM,> 1000 nM,> 10000 nM,> 10000 nM,> 10000 nM,> 10000 nM,> 10000 nM,> 300 nM,> 5000 nM,> 10000 nM,> 20000 nM
EW-11 (Ewing's Sarcoma),> 10000 nM,> 10000 nM,> 3000 nM,> 1000 nM,35.6 nM,> 10000 nM,> 300 nM,> 1000 nM,> 2000 nM,> 1 nM,> 1000 nM,8.46 nM,> 3000 nM,210 nM,> 10000 nM,4160 nM,> 10000 nM,62.2 nM,212 nM,> 1000 nM,> 10000 nM,> 10000 nM,5630 nM,> 1000 nM,5930 nM,423 nM,> 10000 nM,1000 nM,> 10000 nM,> 10000 nM,6380 nM,55.7 nM,> 5000 nM,> 10000 nM,> 20000 nM
OVCAR-5 (Ovarian Carcinoma),> 10000 nM,> 10000 nM,> 3000 nM,89.6 nM,120 nM,> 10000 nM,> 300 nM,> 1000 nM,381 nM,> 1 nM,> 1000 nM,> 300 nM,> 3000 nM,> 1000 nM,> 10000 nM,> 10000 nM,> 10000 nM,40.5 nM,> 1000 nM,677 nM,> 10000 nM,> 10000 nM,> 10000 nM,> 1000 nM,5140 nM,> 1000 nM,> 10000 nM,2070 nM,2150 nM,> 10000 nM,> 10000 nM,> 300 nM,1660 nM,> 10000 nM,> 20000 nM
KS-1 (Glioblastoma),> 10000 nM,> 10000 nM,> 3000 nM,927 nM,375 nM,> 10000 nM,> 300 nM,> 1000 nM,> 2000 nM,> 1 nM,> 1000 nM,> 300 nM,> 3000 nM,> 1000 nM,3510 nM,> 10000 nM,> 10000 nM,539 nM,> 1000 nM,264 nM,> 10000 nM,> 10000 nM,> 10000 nM,> 1000 nM,> 10000 nM,> 1000 nM,> 10000 nM,3460 nM,> 10000 nM,> 10000 nM,> 10000 nM,> 300 nM,> 5000 nM,> 10000 nM,> 20000 nM
